These are literature values, as cited in patent US20250049933A1, “DRUG DELIVERY SYSTEM FOR TARGETED CANCER TREATMENT” (priority 2024, published 2025).

The conditions of series [1]: in vivo.

Molecules are shown by their SMILES.

As to `Nc1ccn([C@@H]2O[C@H](CO)[C@@H](O)C2(F)F)c(=O)n1` [GEM, gemcitabine], the oral bioavailability in series [1] was 9%. Besides, the overall survival in the series with pancreatic cancer is 6.7 months.
